From patent US20090117190A1, “SUSTAINED-RELEASE PREPARATION” (Nissan Chemical Industries, Ltd., priority 2005, published 2009)
Counter-ions that a name gives are not always drawn.

Key:
[1] = absorbability (bioavailability) of oral formulations in a dog; conditions: in vivo, during fasting
Text: (§1) On the other hand, the present inventors have heretofore conducted various studies on oral formulations of 4-bromo-6-[3-(4-chlorophenyl)propoxy]-5-(3-pyridylmethylamino)-3(2H)-pyridazinone (hereinafter referred to simply as Compound A) or its salt.

[2] = solubility in water as a function of pH; type: physicochemical
Text: as §1

[3] = elution test (paddle method, Japanese Pharmacopoeia Disintegration Test Solutions 1 and 2); type: physicochemical
Description: The test conditions are as follows. Test solutions: Japanese Pharmacopoeia Disintegration Test Solution 1 (pH 1.2) 900 mL, Japanese Pharmacopoeia Disintegration Test Solution 2 900 mL (pH 6.8)+0.1% Tween 80 Paddle rotational speed: 50 rpm Liquid temperature: 37° C.

Row | bioavailability [1] | solubility in water ([2]; in the vicinity of the pH in the intestine) | difference in the elution rate between Solution 1 (pH 1.2) and Solution 2 (pH 6.8) containing 0.1% Tween 80 ([3]; 900 mL, 37° C., paddle 50 rpm) | elution rate ([3]; Japanese Pharmacopoeia Disintegration Test Solution 2 (pH 6.8) + 0.1% Tween 80, after 6 hours, 37° C., paddle 50 rpm) | solubility indicated by the elution test ([3]; in the vicinity of the pH in the intestine (Solution 2 + 0.1% Tween 80)) | Compound | solubility in water, dependence on pH ([2]; boundary in the vicinity of pH4.0)
1 | ~10% | hardly soluble in water |  |  |  | O=c1[nH]nc(OCCCc2ccc(Cl)cc2)c(NCc2cccnc2)c1Br [Compound A, 4-bromo-6-[3-(4-chlorophenyl)propoxy]-5-(3-pyridylmethylamino)-3(2H)-pyridazinone] | decreases in the vicinity of pH4.0 as a boundary
2 |  |  | substantial difference | < 20% | hardly soluble | O=c1[nH]nc(OCCCc2ccc(Cl)cc2)c(NCc2cccnc2)c1Br [hydrochloride of Compound A, 4-bromo-6-[3-(4-chlorophenyl)propoxy]-5-(3-pyridylmethylamino)-3(2H)-pyridazinone] | 
